# Test results as given in US20180170904A1, “PYRIDIN-3-YL ACETIC ACID DERIVATIVES AS INHIBITORS OF HUMAN IMMUNODEFICIENCY VIRUS REPLICATION” (priority 2015, published 2018).
# Tested on: NL-RLuc virus (recombinant NL4-3 proviral clone with Renilla Luciferase gene)
# Test: Inhibition of HIV replication (NL-RLuc reporter virus in MT-2 cells)
# Assay type: cell-based
# Settings: MT-2 cells infected with NL-RLuc virus, 5 days of incubation, luciferase readout; read-out: Activity
# Excerpt: Inhibition of HIV replication: A recombinant NL-RLuc proviral clone was constructed in which a section of the nef gene from NL4-3 was replaced with the Renilla Luciferase gene. This virus is fully infectious and can undergo multiple cycles of replication in cell culture. In addition, the luciferous reporter provides a simple and easy method for quantitating the extent of virus growth and consequently, the antiviral activity of test compounds. The plasmid pNLRLuc contains the proviral NL-Rluc DNA cloned into pUC18 at the PvuII site. The NL-RLuc virus was prepared by transfection of 293T cells with the plasmid pNLRLuc. Transfections were performed using the LipofectAMINE PLUS kit from Invitrogen (Carlsbad, Calif.) according to the manufacturer and the virus generated was titered in MT-2 cells. For susceptibility analyses, the titrated virus was used to infect MT-2 cells in the presence of compound, and after 5 days of incubation, cells were processed and quantitated for virus growth by the amount of expressed luciferase. Assay media was RPMI 1640 supplemented with 10% heat inactivated fetal bovine serum (FBS), 100 units/ml penicillin G/100 units/ml streptomycin, 10 mM HEPES buffer pH 7.55 and 2 mM L-glutamine. The results from at least 2 experiments were used to calculate the EC50 values. Luciferase was quantitated using the Dual Luciferase kit from Promega (Madison, Wis.). Susceptibility of viruses to compounds was determined by incubation in the presence of serial dilutions of the compound. The 50% effective concentration (EC50) was calculated by using the exponential form of the median effect equation where (Fa)=1/[1+(ED50/drug conc.)^m] (Johnson V A, Byington R T. Infectivity Assay. In Techniques in HIV Research. ed. Aldovini A, Walker B D. 71-76. New York: Stockton Press.1990). Activity equal to A refers to a compound having an EC50≤100 nM, while B and C denote compounds having an EC50 between 100 nM and 1 uM (B) or >1 uM (C).
row,Compound,EC50 [µM]
1,"(S)-2-(tert-Butoxy)-2-(4-(4,4-dimethylpiperidin-1-yl)-5-(4-(1-(4-fluorobenzyl)-1H-tetrazol-5-yl)phenyl)-2,6-dimethylpyridin-3-yl)acetic acid and/or (S)-2-(tert-Butoxy)-2-(4-(4,4-dimethylpiperidin-1-yl)-5-(4-(2-(4-fluorobenzyl)-2H-tetrazol-5-yl)phenyl)-2,6-dimethylpyridin-3-yl)acetic acid [Example 86]",< 0.1

# Same assay, conditions: Renilla, NL43, 120 h, read-out: Activity
row,Compound,EC50 [µM]
1,"Cc1nc(C)c([C@H](OC(C)(C)C)C(=O)O)c(N2CCC(C)(C)CC2)c1-c1ccc(-c2cccc3ccccc23)cc1 [Example 18, (S)-2-(tert-Butoxy)-2-(4-(4,4-dimethylpiperidin-1-yl)-2,6-dimethyl-5-(4-(naphthalen-1-yl)phenyl)pyridin-3-yl)acetic acid]",< 0.1
2,"Cc1nc(C)c([C@H](OC(C)(C)C)C(=O)O)c(N2CCC(C3CC3)C2)c1-c1ccc(C(=O)NCc2ccccc2)cc1 (stereo partly drawn) [Example 55, (2S)-2-(5-(4-(Benzylcarbamoyl)phenyl)-4-(3-cyclopropylpyrrolidin-1-yl)-2,6-dimethylpyridin-3-yl)-2-(tert-butoxy)acetic acid]",< 0.1
3,"Cc1nc(C)c([C@H](OC(C)(C)C)C(=O)O)c(N2CCC(C)(C)CC2)c1-c1ccc(N2CCCCC2)cc1 [Example 29, (S)-2-(tert-Butoxy)-2-(4-(4,4-dimethylpiperidin-1-yl)-2,6-dimethyl-5-(4-(piperidin-1-yl)phenyl)pyridin-3-yl)acetic acid]",< 0.1
4,"Cc1nc(C)c([C@H](OC(C)(C)C)C(=O)O)c(N2CCC(C)(C)CC2)c1-c1ccc(C(=O)NCc2ccccc2)cc1 [Example 24, (S)-2-(5-(4-(Benzylcarbamoyl)phenyl)-4-(4,4-dimethylpiperidin-1-yl)-2,6-dimethylpyridin-3-yl)-2-(tert-butoxy)acetic acid]",< 0.1
5,"Cc1nc(C)c([C@H](OC(C)(C)C)C(=O)O)c(N2CCC(Cc3ccccc3)CC2)c1-c1ccc(C(=O)NCc2ccccc2)cc1 [Example 64, (S)-2-(5-(4-(Benzylcarbamoyl)phenyl)-4-(4-benzylpiperidin-1-yl)-2,6-dimethylpyridin-3-yl)-2-(tert-butoxy)acetic acid]",0.1 to 1
6,"Cc1nc(C)c([C@H](OC(C)(C)C)C(=O)O)c(N2CCC(C)(C)CC2)c1-c1cccc(-c2nnn[nH]2)c1 [Example 47, (S)-2-(5-(3-(1H-Tetrazol-5-yl)phenyl)-4-(4,4-dimethylpiperidin-1-yl)-2,6-dimethylpyridin-3-yl)-2-(tert-butoxy)acetic acid]",> 1
7,"Cc1nc(C)c([C@H](OC(C)(C)C)C(=O)O)c(N2CCC(C)(C)CC2)c1-c1ccc(N(CCc2ccc(F)cc2)C(O)Cc2ccc(F)cc2)cc1 (stereo partly drawn) [Example 74, (2S)-2-(tert-Butoxy)-2-(4-(4,4-dimethylpiperidin-1-yl)-5-(4-((4-fluorophenethyl)(2-(4-fluorophenyl)-1-hydroxyethyl)amino)phenyl)-2,6-dimethylpyridin-3-yl)acetic acid]",< 0.1
8,"CSc1ncc(-c2c(C)nc(C)c([C@H](OC(C)(C)C)C(=O)O)c2N2CCC(C)(C)CC2)cn1 [Example 42, (S)-2-(tert-Butoxy)-2-(4-(4,4-dimethylpiperidin-1-yl)-2,6-dimethyl-5-(2-(methylthio)pyrimidin-5-yl)pyridin-3-yl)acetic acid]",< 0.1
9,"Cc1nc(C)c([C@H](OC(C)(C)C)C(=O)O)c(N2CCC(C)(C)CC2)c1-c1ccc(C(O)CCc2ccc(F)cc2)cc1 (stereo partly drawn) [Example 51, (2S)-2-(tert-Butoxy)-2-(4-(4,4-dimethylpiperidin-1-yl)-5-(4-(3-(4-fluorophenyl)-1-hydroxypropyl)phenyl)-2,6-dimethylpyridin-3-yl)acetic acid]",< 0.1
10,"Cc1nc(C)c([C@H](OC(C)(C)C)C(=O)O)c(N2CCC(C)(C)CC2)c1-c1ccc(C(=O)O)c(C(=O)NCc2ccccc2)c1 [Example 45, (S)-2-(benzylcarbamoyl)-4-(5-(tert-butoxy(carboxy)methyl)-4-(4,4-dimethylpiperidin-1-yl)-2,6-dimethylpyridin-3-yl)benzoic acid]",0.1 to 1
11,"Cc1nc(C)c([C@H](OC(C)(C)C)C(=O)O)c(N2CCC(C)(C)CC2)c1-c1ccc(F)c(F)c1 [Example 41, (S)-2-(tert-Butoxy)-2-(5-(3,4-difluorophenyl)-4-(4,4-dimethylpiperidin-1-yl)-2,6-dimethylpyridin-3-yl)acetic acid]",< 0.1
12,"Cc1ccc(-c2c(C)nc(C)c([C@H](OC(C)(C)C)C(=O)O)c2N2CCC(C)(C)CC2)cc1C [Example 44, (S)-2-(tert-Butoxy)-2-(5-(3,4-dimethylphenyl)-4-(4,4-dimethylpiperidin-1-yl)-2,6-dimethylpyridin-3-yl)acetic acid]",< 0.1
13,"Cc1cc(-c2c(C)nc(C)c([C@H](OC(C)(C)C)C(=O)O)c2N2CCC(C)(C)CC2)ccc1F [Example 39, (S)-2-(tert-Butoxy)-2-(4-(4,4-dimethylpiperidin-1-yl)-5-(4-fluoro-3-methylphenyl)-2,6-dimethylpyridin-3-yl)acetic acid]",< 0.1
14,"Cc1nc(C)c([C@H](OC(C)(C)C)C(=O)O)c(N2CCC(C)(C)CC2)c1-c1ccc(-c2ccc(OC(C)C)cc2)cc1 [Example 10, (S)-2-(tert-Butoxy)-2-(4-(4,4-dimethylpiperidin-1-yl)-5-(4′-isopropoxy-[1,1′-biphenyl]-4-yl)-2,6-dimethylpyridin-3-yl)acetic acid]",< 0.1
15,"Cc1nc(C)c([C@H](OC(C)(C)C)C(=O)O)c(N2CC(C(C)C)C2)c1-c1ccc(C(=O)NCc2ccccc2)cc1 [Example 59, (S)-2-(5-(4-(Benzylcarbamoyl)phenyl)-4-(3-isopropylazetidin-1-yl)-2,6-dimethylpyridin-3-yl)-2-(tert-butoxy)acetic acid]",> 1
16,"Cc1nc(C)c([C@H](OC(C)(C)C)C(=O)O)c(N2CCC(C)(C)CC2)c1-c1ccc(CC#N)cc1 [Example 48, (S)-2-(tert-Butoxy)-2-(5-(4-(cyanomethyl)phenyl)-4-(4,4-dimethylpiperidin-1-yl)-2,6-dimethylpyridin-3-yl)acetic acid]",0.1 to 1
17,"Cc1nc(C)c([C@H](OC(C)(C)C)C(=O)O)c(N2CCC(C)(C)CC2)c1-c1ccc(C(=O)NC(c2ccccc2)C(F)(F)F)cc1 (stereo partly drawn) [Example 88, (2S)-2-(tert-Butoxy)-2-(4-(4,4-dimethylpiperidin-1-yl)-2,6-dimethyl-5-(4-((2,2,2-trifluoro-1-phenylethyl)carbamoyl)phenyl)pyridin-3-yl)acetic acid]",< 0.1
18,"COc1ccc(-c2ccc(-c3c(C)nc(C)c([C@H](OC(C)(C)C)C(=O)O)c3N3CCC(C)(C)CC3)cc2)cc1 [Example 16, (S)-2-(tert-Butoxy)-2-(4-(4,4-dimethylpiperidin-1-yl)-5-(4′-methoxy-[1,1′-biphenyl]-4-yl)-2,6-dimethylpyridin-3-yl)acetic acid]",< 0.1
19,"Cc1nc(C)c([C@H](OC(C)(C)C)C(=O)O)c(N2CCC(C)(C)CC2)c1-c1ccc(-c2ccccc2)c(F)c1 [Example 14, (S)-2-(tert-Butoxy)-2-(4-(4,4-dimethylpiperidin-1-yl)-5-(2-fluoro-[1,1′-biphenyl]-4-yl)-2,6-dimethylpyridin-3-yl)acetic acid]",< 0.1

# Same assay, conditions: Renilla, NL43, 120 h, read-out: EC50 μM
row,Compound,EC50 [µM]
1,"Cc1nc(C)c([C@H](OC(C)(C)C)C(=O)O)c(N2CCC(C3CC3)C2)c1-c1ccc(C(=O)NCc2ccccc2)cc1 (stereo partly drawn) [Example 55, (2S)-2-(5-(4-(Benzylcarbamoyl)phenyl)-4-(3-cyclopropylpyrrolidin-1-yl)-2,6-dimethylpyridin-3-yl)-2-(tert-butoxy)acetic acid]",0.053
2,"Cc1nc(C)c([C@H](OC(C)(C)C)C(=O)O)c(N2CCC(C)(C)CC2)c1-c1ccc(CC#N)cc1 [Example 48, (S)-2-(tert-Butoxy)-2-(5-(4-(cyanomethyl)phenyl)-4-(4,4-dimethylpiperidin-1-yl)-2,6-dimethylpyridin-3-yl)acetic acid]",0.109
